Tests used:
[1] = test system: Human dermal fibroblasts (HDFs); assay: Microarray analysis of genome-wide gene expression; type: cell-based; conditions: 1 μM effector, 48 hours, vs 0.5% DMSO
[2] = test system: HDAC (nucleus extracts of HeLa cells); assay: HDAC inhibitory activity evaluation (Color de Lys Substrate Deacetylation); type: biochemical; conditions: 0.2 mM substrate, 37° C., 30 minutes, absorption at 405 nm
Experimental: Trichostatin A (TSA), SAHA, and CTB were evaluated for their inhibitory activity against Color de Lys™ Substrate Deacetylation using nucleus extracts of HeLa cells. The nucleus extracts of HeLa cells were incubated with 0.2 mM of a substrate at 37° C. After 30 minutes, the reaction was terminated. Then, absorption at 405 nm was measured using Color de Lys™ Developer and thereby evaluated as HDAC inhibitory activity. The strong HDAC inhibitor trichostatin A (TSA) was compared with SAHA and CTB in terms of HDAC inhibitory activity.

Row | SMILES | gene groups whose expression is activated (microarray clustering analysis) [1] | HDAC inhibitory activity [2]
1 | O=C(CCCCCCC(=O)Nc1ccccc1)NO [SAHA, suberoylanilide hydroxamic acid] | activates the expression of cancer- and cardiovascular disease-related gene groups | –
2 | CCOc1ccccc1C(=O)Nc1ccc(Cl)c(C(F)(F)F)c1 [CTB, N-(4-chloro-3-(trifluoromethyl)phenyl)-2-ethoxybenzamide] | activates the expression of a connective tissue disorder-related gene group | lack HDAC inhibitory activity
